Literature values, collected in patent publication US20080147019A1, “Antimicrobial component system containing metallic nanoparticles and chitosan and/or its derivatives” (Kimberly-Clark Worldwide, Inc., priority 2006, published 2008).

Test system: bacteria (gram+ and gram−), as well as fungi (molds and yeasts)
Details: very low doses, as low as about

With `[Ag+]` [Ionic silver, Ionic silver (Ag+)] as the compound, how does the “dose at which antimicrobial (oligodynamic)” value read?
Its value is 0.001-0.05 ppm.
